Results: US20230040770A1, “HETEROCYCLIC COMPOUND AND USE THEREOF” (TAKEDA PHARMACEUTICAL COMPANY LIMITED, priority 2019, published 2023)

Target: T1, human orexin type 2 receptor (Homo sapiens, UniProt O43614)
T1 construct: expressed in transfected cells
T1 sequence (O43614 1-444): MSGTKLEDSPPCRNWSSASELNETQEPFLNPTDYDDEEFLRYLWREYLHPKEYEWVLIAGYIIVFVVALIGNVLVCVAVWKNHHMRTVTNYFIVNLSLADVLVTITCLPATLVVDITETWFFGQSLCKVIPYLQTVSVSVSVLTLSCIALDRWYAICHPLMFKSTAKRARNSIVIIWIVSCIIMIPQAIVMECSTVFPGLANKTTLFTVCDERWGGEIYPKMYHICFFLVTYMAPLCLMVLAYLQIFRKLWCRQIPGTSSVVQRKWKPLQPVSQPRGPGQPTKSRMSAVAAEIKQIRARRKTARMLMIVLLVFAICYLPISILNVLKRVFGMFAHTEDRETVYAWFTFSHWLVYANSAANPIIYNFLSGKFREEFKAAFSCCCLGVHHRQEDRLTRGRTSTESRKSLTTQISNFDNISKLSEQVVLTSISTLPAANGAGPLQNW
Assay: Measurement of orexin type 2 receptor agonist activity (calcium indicator fluorescence, CHO cells forcibly expressing human OX2 receptor)
Format: cell-based
Settings: compound at 3 μM; 0% = DMSO, 100% = orexin A (human) 10 nM
Procedure, shortened: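 Agonist response normalised between vehicle (0%) and orexin A at 10 nM final (100%), from kinetic Fluo-4 calcium signals recorded for about 2 min after compound addition. Cells: stable human OX2R CHO clone, dye-loaded 30 min at 37 °C plus 30 min at room temperature.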

Point of comparison: CN(C)S(=O)(=O)N[C@@H]1[C@H](Cc2cccc(-c3cc(F)cc(F)c3)c2F)N(C(=O)N2CCC2)CC1(F)F [Example 548, N′-{(2S,3R)-1-(azetidine-1-carbonyl)-4,4-difluoro-2-[(2,3′,5′-trifluoro[1,1′-biphenyl]-3-yl)methyl]pyrrolidin-3-yl}-N,N-dimethylsulfuric diamide], “OX2R agonist activity (3 μM, %)” value 94%. Against it:
- Cc1cccc(-c2cccc(C[C@H]3[C@@H](NS(=O)(=O)N(C)C)C(F)(F)CN3C(=O)N(C)C)c2F)c1F [Example 531, (2S,3R)-2-[(2,2′-difluoro-3′-methyl[1,1′-biphenyl]-3-yl)methyl]-3-[(dimethylsulfamoyl)amino]-4,4-difluoro-N,N-dimethylpyrrolidine-1-carboxamide] — higher, 95%
- CN(C)C(=O)N1CC(F)(F)[C@H](NS(=O)(=O)N(C)C)[C@@H]1Cc1cccc(-c2cc(F)cc(F)c2)c1F [Example 532, (2S,3R)-3-[(dimethylsulfamoyl)amino]-4,4-difluoro-N,N-dimethyl-2-[(2,3′,5′-trifluoro[1,1′-biphenyl]-3-yl)methyl]pyrrolidine-1-carboxamide] — higher, 96%
- Cc1cc(F)cc(-c2cccc(C[C@H]3[C@@H](NS(=O)(=O)C4CC4)C(F)(F)CN3C(=O)[C@H]3CCO3)c2F)c1 [Example 533, N-{(2S,3R)-2-[(2,3′-difluoro-5′-methyl[1,1′-biphenyl]-3-yl)methyl]-4,4-difluoro-1-[(2R)-oxetane-2-carbonyl]pyrrolidin-3-yl}cyclopropanesulfonamide] — higher, 101%
- O=C(N1CCC1)N1CC(F)(F)[C@H](NS(=O)(=O)C2CC2)[C@@H]1Cc1cccc(-c2cccc(F)c2)c1F [Example 534, N-{(2S,3R)-1-(azetidine-1-carbonyl)-2-[(2,3′-difluoro[1,1′-biphenyl]-3-yl)methyl]-4,4-difluoropyrrolidin-3-yl}cyclopropanesulfonamide] — higher, 98%
- CCS(=O)(=O)N[C@H]1[C@@H](F)CN(C(=O)C2CCO2)[C@H]1Cc1cccc(-c2cccc(C(F)F)c2)c1F (stereo partly drawn) [Example 535, N-[(2S,3R,4S)-2-{[3′-(difluoromethyl)-2-fluoro[1,1′-biphenyl]-3-yl]methyl}-4-fluoro-1-(oxetane-2-carbonyl)pyrrolidin-3-yl]ethanesulfonamide] — higher, 102%
- CCS(=O)(=O)N[C@H]1[C@@H](F)CN(C(=O)C2(O)CCC2)[C@H]1Cc1cccc(-c2cccc(C)c2)c1F [Example 536, N-[(2S,3R,4S)-4-fluoro-2-[(2-fluoro-3′-methyl[1,1′-biphenyl]-3-yl)methyl]-1-(1-hydroxycyclobutane-1-carbonyl)pyrrolidin-3-yl]ethanesulfonamide] — higher, 98%
- Cc1cccc(-c2cccc(C[C@H]3[C@@H](NS(=O)(=O)C4CC4)[C@@H](F)CN3C(=O)C3(O)CCC3)c2F)c1 [Example 537, N-[(2S,3R,4S)-4-fluoro-2-[(2-fluoro-3′-methyl[1,1′-biphenyl]-3-yl)methyl]-1-(1-hydroxycyclobutane-1-carbonyl)pyrrolidin-3-yl]cyclopropanesulfonamide] — higher, 100%
- Cc1cccc(-c2cccc(C[C@H]3[C@@H](NS(=O)(=O)C4CC4)[C@@H](F)CN3C(=O)N(C)C)c2F)c1 [Example 538, (2S,3R,4S)-3-[(cyclopropanesulfonyl)amino]-4-fluoro-2-[(2-fluoro-3′-methyl[1,1′-biphenyl]-3-yl)methyl]-N,N-dimethylpyrrolidine-1-carboxamide] — higher, 106%
- Cc1cccc(-c2cccc(C[C@H]3[C@@H](NS(=O)(=O)N(C)C)C(F)(F)CN3C(=O)[C@H]3CCO3)c2F)c1F [Example 539, N′-{(2S,3R)-2-[(2,2′-difluoro-3′-methyl[1,1′-biphenyl]-3-yl)methyl]-4,4-difluoro-1-[(2R)-oxetane-2-carbonyl]pyrrolidin-3-yl}-N,N-dimethylsulfuric diamide] — higher, 101%
- Cc1cc(F)cc(-c2cccc(C[C@H]3[C@@H](NS(=O)(=O)N(C)C)C(F)(F)CN3C(=O)[C@H]3CCO3)c2F)c1 [Example 540, N′-{(2S,3R)-2-[(2,3′-difluoro-5′-methyl[1,1′-biphenyl]-3-yl)methyl]-4,4-difluoro-1-[(2R)-oxetane-2-carbonyl]pyrrolidin-3-yl}-N,N-dimethylsulfuric diamide] — higher, 100%
- CN(C)S(=O)(=O)N[C@@H]1[C@H](Cc2cccc(-c3cccc(F)c3)c2F)N(C(=O)[C@H]2CCO2)CC1(F)F [Example 541, N′-{(2S,3R)-2-[(2,3′-difluoro[1,1′-biphenyl]-3-yl)methyl]-4,4-difluoro-1-[(2R)-oxetane-2-carbonyl]pyrrolidin-3-yl}-N,N-dimethylsulfuric diamide] — higher, 100%
- Cc1cccc(-c2cccc(C[C@H]3[C@@H](NS(=O)(=O)C4CC4)[C@@H](F)CN3C(=O)N3CCC3)c2F)c1 [Example 543, N-{(2S,3R,4S)-1-(azetidine-1-carbonyl)-4-fluoro-2-[(2-fluoro-3′-methyl[1,1′-biphenyl]-3-yl)methyl]pyrrolidin-3-yl}cyclopropanesulfonamide] — higher, 99%
- O=C(N1CCC1)N1C[C@H](F)[C@H](NS(=O)(=O)C2CC2)[C@@H]1Cc1cccc(-c2cc(F)cc(F)c2)c1F [Example 544, N-{(2S,3R,4S)-1-(azetidine-1-carbonyl)-4-fluoro-2-[(2,3′,5′-trifluoro[1,1′-biphenyl]-3-yl)methyl]pyrrolidin-3-yl}cyclopropanesulfonamide] — lower, 90%
- Cc1cccc(-c2cccc(C[C@H]3[C@@H](NS(=O)(=O)N(C)C)C(F)(F)CN3C(=O)N3CCC3)c2F)c1F [Example 545, N′-{(2S,3R)-1-(azetidine-1-carbonyl)-2-[(2,2′-difluoro-3′-methyl[1,1′-biphenyl]-3-yl)methyl]-4,4-difluoropyrrolidin-3-yl}-N,N-dimethylsulfuric diamide] — lower, 93%
- Cc1cc(F)cc(-c2cccc(C[C@H]3[C@@H](NS(=O)(=O)N(C)C)C(F)(F)CN3C(=O)N3CCC3)c2F)c1 [Example 546, N′-{(2S,3R)-1-(azetidine-1-carbonyl)-2-[(2,3′-difluoro-5′-methyl[1,1′-biphenyl]-3-yl)methyl]-4,4-difluoropyrrolidin-3-yl}-N,N-dimethylsulfuric diamide] — higher, 96%
- CN(C)S(=O)(=O)N[C@@H]1[C@H](Cc2cccc(-c3cccc(F)c3)c2F)N(C(=O)N2CCC2)CC1(F)F [Example 547, N′-{(2S,3R)-1-(azetidine-1-carbonyl)-2-[(2,3′-difluoro[1,1′-biphenyl]-3-yl)methyl]-4,4-difluoropyrrolidin-3-yl}-N,N-dimethylsulfuric diamide] — higher, 98%
- CCS(=O)(=O)N[C@@H]1[C@H](Cc2cccc(-c3cccc(OC(F)F)c3)c2F)N(C(=O)C(C)C)CC1(F)F [Example 549, N-[(2S,3R)-2-{[3′-(difluoromethoxy)-2-fluoro[1,1′-biphenyl]-3-yl]methyl}-4,4-difluoro-1-(2-methylpropanoyl)pyrrolidin-3-yl]ethanesulfonamide] — the same, 94%
- CCS(=O)(=O)N[C@@H]1[C@H](Cc2cccc(-c3cccc(OC(F)F)c3)c2F)N(C(=O)C2CC2)CC1(F)F [Example 550, N-[(2S,3R)-1-(cyclopropanecarbonyl)-2-{[3′-(difluoromethoxy)-2-fluoro[1,1′-biphenyl]-3-yl]methyl}-4,4-difluoropyrrolidin-3-yl]ethanesulfonamide] — lower, 93%
- CCS(=O)(=O)N[C@@H]1[C@H](Cc2cccc(-c3cccc(OC(F)F)c3)c2F)N(C(=O)C23CC(C2)C3)CC1(F)F [Example 551, N-[(2S,3R)-1-(bicyclo[1.1.1]pentane-1-carbonyl)-2-{[3′-(difluoromethxoy)-2-fluoro[1,1′-biphenyl]-3-yl]methyl}-4,4-difluoropyrrolidin-3-yl]ethanesulfonamide] — lower, 93%
- CCS(=O)(=O)N[C@@H]1[C@H](Cc2cccc(-c3cccc(OC(F)F)c3)c2F)N(C(=O)C2(O)CCC2)CC1(F)F [Example 552, N-[(2S,3R)-2-{[3′-(difluoromethoxy)-2-fluoro[1,1′-biphenyl]-3-yl]methyl}-4,4-difluoro-1-(1-hydroxycyclobutane-1-carbonyl)pyrrolidin-3-yl]ethanesulfonamide] — the same, 94%
